Assays:
succinate dehydrogenase = target: T1, succinate dehydrogenase (Botrytis cinerea, UniProt A0A384J5E4+A0A384J8V8+A0A384JHJ5); experiment: Enzyme inhibition: succinate dehydrogenase activity in Botrytis cinerea mitochondria (DCPIP reduction); assay type: biochemical; details: concentration required to inhibit the rate of DCPIP reduction by 50%; Botrytis cinerea isolate Nick mitochondria; read-out: I50 (μM conc.)
T1 construct: succinate-DCPIP reductase assay with KCN
Procedure, shortened: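 DCPIP (45 μM) reduction at 600 nm tracked with 17 mM succinate, 1 mM KCN and 50 mM potassium phosphate, pH 7.2. Compounds were added in acetone (final 1% v/v), and Botrytis cinerea isolate Nick mitochondrial fraction initiated the reaction. Rates minus endogenous activity gave percentage inhibition, plotted semilog against concentration to derive I50 (μM).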

Botrytis cinerea [1] = experiment: Eggplant grey mold; assay type: in vivo; set-up: scale not given here; details: inoculated 24 h later, rated after 3-4 days; for Disease Control Rating at 20 ppm: eggplant sprayed with 20 ppm; for Disease Control Rating at 100 ppm: eggplant sprayed with 100 ppm; for Disease Control Rating at 500 ppm: eggplant sprayed with 500 ppm
Procedure, shortened: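 Protective test: compound formulations (2:3 acetone:water, 0.5% Tween 20; 500, 100 or 20 ppm) sprayed on 14-18-day-old plants, with spore inoculum (4×10^6 spore/mL) applied a day later. Disease control rated on Botrytis lesions after 3-4 days at 23 °C and 100% humidity.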

Botrytis cinerea [2] = experiment: Vine grey mold (grape berries); assay type: in vivo; details: average of six berries, 7-10 days; for pest or weed control at 50 ppm: grape berries treated with 50 ppm, read-out: % DISEASE CONTROL 50 ppm; for pest or weed control at 200 ppm: grape berries treated with 200 ppm, read-out: % DISEASE CONTROL 200 ppm
Procedure, shortened: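 Preventive berry test: compound at 50 or 200 ppm (acetone/water, 0.05% Tween 20) applied one day before inoculation with 10^6 spores/mL Botrytis conidia. After 7-10 days at 20 °C under 12 h light, infected surface area rated; disease control expressed as percent reduction from control mean; repeated-test values averaged.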

Rhizoctonia solani = experiment: Rice sheath blight; assay type: in vivo; set-up: scale not given here; details: inoculated two days later, rated after 7 days, average of five plants; for Disease Control Rating at 0.02 mg/mL: foliage and soil sprayed with 0.02 mg/mL; for Disease Control Rating at 0.1 mg/mL: foliage and soil sprayed with 0.1 mg/mL; for Disease Control Rating at 0.5 mg/mL: foliage and soil sprayed with 0.5 mg/mL
Procedure, shortened: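 Preventive test: R. solani inoculum on rice grain was applied at the plant base two days after spraying foliage and soil with Compound A (0.5, 0.1 or 0.02 mg/mL, water/acetone/Tween 20). Plants aged 11–15 days stood in flood trays; after 7 days at 25 °C and high humidity, disease control was rated against untreated plants, five plants averaged.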

T1 sequence (A0A384J5E4 1-300): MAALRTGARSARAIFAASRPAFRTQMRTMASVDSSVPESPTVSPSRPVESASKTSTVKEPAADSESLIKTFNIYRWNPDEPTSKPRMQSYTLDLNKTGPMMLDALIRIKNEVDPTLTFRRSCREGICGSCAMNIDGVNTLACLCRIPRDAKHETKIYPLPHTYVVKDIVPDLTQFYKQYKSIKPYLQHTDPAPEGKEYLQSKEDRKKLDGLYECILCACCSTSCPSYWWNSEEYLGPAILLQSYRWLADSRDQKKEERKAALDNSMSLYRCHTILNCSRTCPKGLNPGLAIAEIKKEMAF
T1 sequence (A0A384J8V8 1-189): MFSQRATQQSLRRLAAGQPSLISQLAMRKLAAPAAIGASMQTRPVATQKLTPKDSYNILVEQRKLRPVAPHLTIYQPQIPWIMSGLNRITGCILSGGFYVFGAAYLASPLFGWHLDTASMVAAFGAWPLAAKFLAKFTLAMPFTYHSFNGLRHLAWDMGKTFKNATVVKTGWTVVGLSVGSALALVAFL
T1 sequence (A0A384JHJ5 1-192): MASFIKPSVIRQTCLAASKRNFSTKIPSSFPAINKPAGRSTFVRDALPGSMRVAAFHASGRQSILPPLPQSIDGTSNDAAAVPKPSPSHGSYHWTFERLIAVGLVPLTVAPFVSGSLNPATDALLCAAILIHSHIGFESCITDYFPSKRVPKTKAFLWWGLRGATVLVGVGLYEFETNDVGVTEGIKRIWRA
T1 sequence (A0A384K456 1-647 partner): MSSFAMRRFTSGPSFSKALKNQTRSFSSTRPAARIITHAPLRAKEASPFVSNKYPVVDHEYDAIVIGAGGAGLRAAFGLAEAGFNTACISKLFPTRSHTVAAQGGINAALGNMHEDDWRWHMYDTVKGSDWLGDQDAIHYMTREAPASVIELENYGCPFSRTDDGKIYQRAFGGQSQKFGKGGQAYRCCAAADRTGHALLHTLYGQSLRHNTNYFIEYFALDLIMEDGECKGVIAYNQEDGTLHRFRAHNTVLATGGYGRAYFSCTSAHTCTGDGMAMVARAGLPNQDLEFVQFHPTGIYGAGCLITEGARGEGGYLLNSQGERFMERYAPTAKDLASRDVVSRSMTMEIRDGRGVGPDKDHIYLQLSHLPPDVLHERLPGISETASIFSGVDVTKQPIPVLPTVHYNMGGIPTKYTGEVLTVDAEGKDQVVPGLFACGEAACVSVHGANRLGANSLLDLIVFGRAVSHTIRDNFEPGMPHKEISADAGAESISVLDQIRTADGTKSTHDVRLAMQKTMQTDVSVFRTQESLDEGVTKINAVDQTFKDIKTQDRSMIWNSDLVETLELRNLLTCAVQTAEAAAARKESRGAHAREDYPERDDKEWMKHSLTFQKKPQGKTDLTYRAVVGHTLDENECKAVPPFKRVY

SMILES: Cn1cc(C(=O)Nc2ccccc2C2CCC(C(C)(C)C)CC2)c(C(F)F)n1 (stereo not shown) [Example 134]
- IC50 (succinate dehydrogenase): 0.0047 µM
- Disease Control Rating at 20 ppm (Botrytis cinerea [1]): 1
- Disease Control Rating at 100 ppm (Botrytis cinerea [1]): 1
- Disease Control Rating at 500 ppm (Botrytis cinerea [1]): 2
- pest or weed control at 50 ppm (Botrytis cinerea [2]): 66%
- pest or weed control at 200 ppm (Botrytis cinerea [2]): 61%
- Disease Control Rating at 0.02 mg/mL (Rhizoctonia solani): 3
- Disease Control Rating at 0.1 mg/mL (Rhizoctonia solani): 3
- Disease Control Rating at 0.5 mg/mL (Rhizoctonia solani): 3

SMILES: Cn1cc(C(=O)Nc2ccccc2OCC2CCC2)c(C(F)(F)F)n1 [Example 43, 1H-pyrazole-4-carboxamide, N-[2-(cyclobutylmethoxy)phenyl]-1-methyl-3-(trifluoromethyl)-]
- IC50 (succinate dehydrogenase): 0.38 µM
- Disease Control Rating at 500 ppm (Botrytis cinerea [1]): 0
- pest or weed control at 50 ppm (Botrytis cinerea [2]): 3%
- pest or weed control at 200 ppm (Botrytis cinerea [2]): 0%
- Disease Control Rating at 0.02 mg/mL (Rhizoctonia solani): 2
- Disease Control Rating at 0.1 mg/mL (Rhizoctonia solani): 3
- Disease Control Rating at 0.5 mg/mL (Rhizoctonia solani): 3

SMILES: Cn1cc(C(=O)Nc2ccc(F)cc2C2(C)CCCCC2)c(C(F)(F)F)n1 [Example 98, 1H-pyrazole-4-carboxamide, N-[4-fluoro-2-(1-methylcyclohexyl)-phenyl]-1-methyl-3-(trifluoromethyl)-]
- IC50 (succinate dehydrogenase): 0.8 µM
- Disease Control Rating at 500 ppm (Botrytis cinerea [1]): 0
- pest or weed control at 50 ppm (Botrytis cinerea [2]): 14%
- pest or weed control at 200 ppm (Botrytis cinerea [2]): 0%
- Disease Control Rating at 0.5 mg/mL (Rhizoctonia solani): 0

SMILES: Cn1cc(C(=S)Nc2ccccc2C2CCCCCC2)c(C(F)(F)F)n1 [Example 78, 1H-pyrazole-4-carbothioamide, N-(2-cycloheptylphenyl)-3-(trifluoromethyl)-1-methyl]
- IC50 (succinate dehydrogenase): 8.7 µM
- Disease Control Rating at 20 ppm (Botrytis cinerea [1]): 1
- Disease Control Rating at 100 ppm (Botrytis cinerea [1]): 1
- Disease Control Rating at 500 ppm (Botrytis cinerea [1]): 2
- pest or weed control at 50 ppm (Botrytis cinerea [2]): 35%
- pest or weed control at 200 ppm (Botrytis cinerea [2]): 35%
- Disease Control Rating at 0.5 mg/mL (Rhizoctonia solani): 0

SMILES: Cc1cc(C)c(C2CCCC2)c(NC(=O)c2cn(C)nc2C(F)(F)F)c1 [Example 31, 1H-pyrazole-4-carboxamide, N-(2-cyclopentyl-3,5-dimethylphenyl)-1-methyl-3-(trifluoromethyl)-]
- IC50 (succinate dehydrogenase): 0.068 µM
- Disease Control Rating at 20 ppm (Botrytis cinerea [1]): 0
- Disease Control Rating at 100 ppm (Botrytis cinerea [1]): 0
- Disease Control Rating at 500 ppm (Botrytis cinerea [1]): 0
- pest or weed control at 50 ppm (Botrytis cinerea [2]): 0%
- pest or weed control at 200 ppm (Botrytis cinerea [2]): 23%
- Disease Control Rating at 0.5 mg/mL (Rhizoctonia solani): 1

SMILES: Cn1cc(C(=O)Nc2ccccc2C2CCCCCC2)c(C(F)F)n1 [Example 9, 1H-pyrazole-4-carboxamide, N-(2-cycloheptylphenyl)-3-(difluoromethyl)-1-methyl-]
- IC50 (succinate dehydrogenase): 0.0019 µM
- Disease Control Rating at 20 ppm (Botrytis cinerea [1]): 0
- Disease Control Rating at 100 ppm (Botrytis cinerea [1]): 2
- Disease Control Rating at 500 ppm (Botrytis cinerea [1]): 2
- pest or weed control at 50 ppm (Botrytis cinerea [2]): 94%
- pest or weed control at 200 ppm (Botrytis cinerea [2]): 89%
- Disease Control Rating at 0.02 mg/mL (Rhizoctonia solani): 3
- Disease Control Rating at 0.1 mg/mL (Rhizoctonia solani): 3
- Disease Control Rating at 0.5 mg/mL (Rhizoctonia solani): 3

SMILES: CC1=C(c2ccccc2NC(=O)c2cn(C)nc2C(F)F)C(C)CCC1 (stereo not shown) [Example 124, 1H-pyrazole-4-carboxamide, 3-(difluoromethyl)-N-[2-(2,6-dimethyl-1-cyclohexen-1-yl)phenyl]-1-methyl-]
- IC50 (succinate dehydrogenase): 0.013 µM
- Disease Control Rating at 20 ppm (Botrytis cinerea [1]): 0
- Disease Control Rating at 100 ppm (Botrytis cinerea [1]): 1
- Disease Control Rating at 500 ppm (Botrytis cinerea [1]): 2
- pest or weed control at 50 ppm (Botrytis cinerea [2]): 48%
- pest or weed control at 200 ppm (Botrytis cinerea [2]): 96%
- Disease Control Rating at 0.5 mg/mL (Rhizoctonia solani): 2

SMILES: Cn1cc(C(=O)Nc2ccccc2C2=CCOCC2)c(C(F)(F)F)n1 [Example 108, 1H-pyrazole-4-carboxamide, N-[2-(5,6-dihydro-2H-pyran-4-yl)phenyl]-1-methyl-3-(trifluoromethyl)-]
- IC50 (succinate dehydrogenase): 1.6 µM
- Disease Control Rating at 500 ppm (Botrytis cinerea [1]): 0
- pest or weed control at 50 ppm (Botrytis cinerea [2]): 12%
- pest or weed control at 200 ppm (Botrytis cinerea [2]): 0%
- Disease Control Rating at 0.5 mg/mL (Rhizoctonia solani): 0

SMILES: Cn1cc(C(=O)Nc2ccccc2OCC2CCCC2)c(C(F)F)n1 [Example 46, 1H-pyrazole-4-carboxamide, N-[2-(cyclopentylmethoxy)phenyl]-3-(difluoromethyl)-1-methyl-]
- IC50 (succinate dehydrogenase): 0.096 µM
- Disease Control Rating at 500 ppm (Botrytis cinerea [1]): 0
- pest or weed control at 50 ppm (Botrytis cinerea [2]): 1%
- pest or weed control at 200 ppm (Botrytis cinerea [2]): 0%
- Disease Control Rating at 0.02 mg/mL (Rhizoctonia solani): 2
- Disease Control Rating at 0.1 mg/mL (Rhizoctonia solani): 3
- Disease Control Rating at 0.5 mg/mL (Rhizoctonia solani): 3

SMILES: Cn1cc(C(=O)Nc2ccccc2OCC2CCC2)c(C(F)F)n1 [Example 42, 1H-pyrazole-4-carboxamide, N-[2-(cyclobutylmethoxy)phenyl]-3-(difluoromethyl)-1-methyl-]
- IC50 (succinate dehydrogenase): 0.2 µM
- Disease Control Rating at 500 ppm (Botrytis cinerea [1]): 0
- pest or weed control at 50 ppm (Botrytis cinerea [2]): 0%
- pest or weed control at 200 ppm (Botrytis cinerea [2]): 25%
- Disease Control Rating at 0.02 mg/mL (Rhizoctonia solani): 2
- Disease Control Rating at 0.1 mg/mL (Rhizoctonia solani): 3
- Disease Control Rating at 0.5 mg/mL (Rhizoctonia solani): 3

SMILES: Cc1nn(C)c(Cl)c1C(=O)Nc1ccccc1C1CCCCCC1 [Example 107, 1H-pyrazole-4-carboxamide, 5-chloro-N-(2-cycloheptylphenyl)-1,3-dimethyl-]
- IC50 (succinate dehydrogenase): 0.055 µM
- Disease Control Rating at 500 ppm (Botrytis cinerea [1]): 0
- pest or weed control at 50 ppm (Botrytis cinerea [2]): 27%
- pest or weed control at 200 ppm (Botrytis cinerea [2]): 49%
- Disease Control Rating at 0.02 mg/mL (Rhizoctonia solani): 1
- Disease Control Rating at 0.1 mg/mL (Rhizoctonia solani): 3
- Disease Control Rating at 0.5 mg/mL (Rhizoctonia solani): 3

SMILES: Cn1nc(C(F)(F)F)c(C(=O)Nc2ccccc2[C@@H]2C[C@H]3CC[C@@H]2C3)c1Cl (relative stereo) [Example 88, 1H-pyrazole-4-carboxamide, N-(2-bicyclo[2.2.1]hept-2-ylphenyl)-5-chloro-1-methyl-3-(trifluoromethyl)-, exo-]
- IC50 (succinate dehydrogenase): 0.035 µM
- Disease Control Rating at 500 ppm (Botrytis cinerea [1]): 0
- pest or weed control at 50 ppm (Botrytis cinerea [2]): 0%
- pest or weed control at 200 ppm (Botrytis cinerea [2]): 0%
- Disease Control Rating at 0.5 mg/mL (Rhizoctonia solani): 0

SMILES: C[C@@H]1CCC[C@H](C)[C@H]1Oc1ccccc1NC(=O)c1cn(C)nc1C(F)(F)F [Example 76, 1H-pyrazole-4-Carboxamide, 1 methyl-N-[2-[(2,6-dimethylcyclohexyl)oxy]phenyl]-3-(trifluoromethyl)-, (1alpha,2beta,6beta)-]
- IC50 (succinate dehydrogenase): 0.032 µM
- Disease Control Rating at 500 ppm (Botrytis cinerea [1]): 0
- pest or weed control at 50 ppm (Botrytis cinerea [2]): 8%
- pest or weed control at 200 ppm (Botrytis cinerea [2]): 0%
- Disease Control Rating at 0.5 mg/mL (Rhizoctonia solani): 0

SMILES: Cn1cc(C(=O)Nc2ccc(F)cc2C2CCCCC2)c(C(F)F)n1 [Example 11, 1H-pyrazole-4-carboxamide, N-(2-cyclohexyl-4-fluorophenyl)-3-(difluoromethyl)-1-methyl-]
- IC50 (succinate dehydrogenase): 0.0054 µM
- Disease Control Rating at 20 ppm (Botrytis cinerea [1]): 2
- Disease Control Rating at 100 ppm (Botrytis cinerea [1]): 2
- Disease Control Rating at 500 ppm (Botrytis cinerea [1]): 3
- pest or weed control at 50 ppm (Botrytis cinerea [2]): 75%
- pest or weed control at 200 ppm (Botrytis cinerea [2]): 92%
- Disease Control Rating at 0.02 mg/mL (Rhizoctonia solani): 1
- Disease Control Rating at 0.1 mg/mL (Rhizoctonia solani): 3
- Disease Control Rating at 0.5 mg/mL (Rhizoctonia solani): 3

SMILES: Cn1cc(C(=O)Nc2ccccc2C2=CCC(C(C)(C)C)CC2)c(C(F)(F)F)n1 (stereo not shown) [Example 133, 1H-pyrazole-4-carboxamide, N-[2-[4-(1, -dimethylethyl)-1-cyclohexen-1-yl]phenyl]-1-methyl-3-(trifluoromethyl)-]
- IC50 (succinate dehydrogenase): 0.0046 µM
- Disease Control Rating at 20 ppm (Botrytis cinerea [1]): 0
- Disease Control Rating at 100 ppm (Botrytis cinerea [1]): 0
- Disease Control Rating at 500 ppm (Botrytis cinerea [1]): 1
- pest or weed control at 50 ppm (Botrytis cinerea [2]): 39%
- pest or weed control at 200 ppm (Botrytis cinerea [2]): 36%
- Disease Control Rating at 0.02 mg/mL (Rhizoctonia solani): 1
- Disease Control Rating at 0.1 mg/mL (Rhizoctonia solani): 2
- Disease Control Rating at 0.5 mg/mL (Rhizoctonia solani): 3

SMILES: Cn1cc(C(=O)Nc2ccccc2C2CCCCCC2)c(I)n1 [Example 57, 1H-pyrazole-4-carboxamide, N-[2-(cycloheptyl)phenyl]-3-iodo-1-methyl-]
- IC50 (succinate dehydrogenase): 0.0047 µM
- Disease Control Rating at 500 ppm (Botrytis cinerea [1]): 0
- pest or weed control at 50 ppm (Botrytis cinerea [2]): 53%
- pest or weed control at 200 ppm (Botrytis cinerea [2]): 72%
- Disease Control Rating at 0.5 mg/mL (Rhizoctonia solani): 0

SMILES: Cn1cc(C(=O)Nc2ccccc2C2CCCCCC2)c(Cl)n1 [Example 51, 1H-pyrazole-4-carboxamide, 3-chloro-N-(2-cycloheptylphenyl)-1-methyl-]
- IC50 (succinate dehydrogenase): 0.023 µM
- Disease Control Rating at 500 ppm (Botrytis cinerea [1]): 0
- pest or weed control at 50 ppm (Botrytis cinerea [2]): 16%
- pest or weed control at 200 ppm (Botrytis cinerea [2]): 27%
- Disease Control Rating at 0.02 mg/mL (Rhizoctonia solani): 0
- Disease Control Rating at 0.1 mg/mL (Rhizoctonia solani): 1
- Disease Control Rating at 0.5 mg/mL (Rhizoctonia solani): 2

SMILES: Cn1cc(C(=S)Nc2ccccc2C2CCCCC2)c(C(F)F)n1 [Example 77, 1H-pyrazole-4-carbothioamide, N-(2-cyclohexylphenyl)-3-(difluoromethyl)-1-methyl]
- IC50 (succinate dehydrogenase): 22 µM
- Disease Control Rating at 20 ppm (Botrytis cinerea [1]): 0
- Disease Control Rating at 100 ppm (Botrytis cinerea [1]): 1
- Disease Control Rating at 500 ppm (Botrytis cinerea [1]): 2
- pest or weed control at 50 ppm (Botrytis cinerea [2]): 85%
- pest or weed control at 200 ppm (Botrytis cinerea [2]): 82%
- Disease Control Rating at 0.5 mg/mL (Rhizoctonia solani): 0

From patent US5223526A, “Pyrazole carboxanilide fungicides and use” (Monsanto Company, priority 1992, dated 1993)
